24 molecules from patent publication US10533010B2, “Substituted indole Mcl-1 inhibitors” (Vanderbilt University, priority 2014, dated 2020) can be followed below.

The target of one assay is recombinant Mcl-1 (residues 172-327) (Homo sapiens (Human), UniProt Q07820). The experiment in a line: Fluorescence polarization anisotropy competition assay (FITC-Bak or FITC-Bim BH3 peptide) with Mcl-1. The format is binding.
Sequence of recombinant Mcl-1 (residues 172-327) (Q07820 172-327): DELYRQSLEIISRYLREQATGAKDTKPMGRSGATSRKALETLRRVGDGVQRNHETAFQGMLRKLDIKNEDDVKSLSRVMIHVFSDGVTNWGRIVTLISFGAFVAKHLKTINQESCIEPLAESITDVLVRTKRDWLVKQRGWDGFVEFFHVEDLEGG
Conditions: not given
For orientation: In fluorescence polarisation assays a small probe gives low polarisation when free and higher when bound to something large.
With `Cc1cc(OCCCc2c3n(c4c(-c5c(C)nn(C)c5C)cc(Cl)cc24)CCCN(c2cc(C(=O)O)cc4c2ccn4C)C3=O)cc(C)c1Cl` [I-245, 4-(9-chloro-11-(3-(4-chloro-3,5-dimethylphenoxy)propyl)-1-oxo-7-(1,3,5-trimethyl-1H-pyrazol-4-yl)-4,5-dihydro-1H-[1,4]diazepino[1,2-a]indol-2(3H)-yl)-1-methyl-1H-indole-6-carboxylic acid], the inhibition constant (Ki) (in general, a dissociation constant, usually derived from enzyme kinetics or from competition with a known ligand) lay in the range of 101 to 299 nM.

The assay is the same for the next values; noted with them: Table 2; Ki bins given in nM; FITC-Bak or FITC-Bim peptide competition; Ki converted from IC50; read-out: Ki for Inhibition of Mcl-1.
Consider `Cc1cc(OCCCc2c3n(c4c(-c5c(C)nn(C)c5C)c(Cl)ccc24)C(C)CN(Cc2ccc(C(=O)O)cn2)C3=O)cc(C)c1Cl` (stereo not drawn) [I-129, 6-((7-chloro-10-(3-(4-chloro-3,5-dimethylphenoxy)propyl)-4-methyl-1-oxo-6-(1,3,5-trimethyl-1H-pyrazol-4-yl)-3,4-dihydropyrazino[1,2-a]indol-2(1H)-yl)methyl)nicotinic acid], for which the inhibitory constant (Ki) is under 50 nM.

As to `Cc1cc(OCCCc2c(C(=O)NCc3ccc(C(=O)O)cc3)n(CCN3CCOCC3)c3c(-c4c(C)nn(C)c4C)c(Cl)ccc23)cc(C)c1Cl` [I-373, 4-((6-chloro-3-(3-(4-chloro-3,5-dimethylphenoxy)propyl)-1-(2-morpholinoethyl)-7-(1,3,5-trimethyl-1H-pyrazol-4-yl)-1H-indole-2-carboxamido)methyl)benzoic acid], the Ki was under 50 nM. With `Cc1cc(OCCCc2c(C(=O)NCCS(=O)(=O)NC(=O)CC34CC5CC(CC(C5)C3)C4)[nH]c3ccccc23)cc(C)c1Cl` [I-54, N-(2-(N-(2-((3r,5r,7r)-adamantan-1-yl)acetyl)sulfamoyl)ethyl)-3-(3-(4-chloro-3,5-dimethylphenoxy)propyl)-1H-indole-2-carboxamide], the Ki is 501 to 999 nM. For `Cc1cc(OCCCc2c3n(c4c(-c5c(C)nn(C)c5C)cccc24)CCCN(Cc2cc(C(=O)O)n(C)c2)C3=O)cc(C)c1Cl` [I-79, 4-((11-(3-(4-chloro-3,5-dimethylphenoxy)propyl)-1-oxo-7-(1,3,5-trimethyl-1H-pyrazol-4-yl)-4,5-dihydro-1H-[1,4]diazepino[1,2-a]indol-2(3H)-yl)methyl)-1-methyl-1H-pyrrole-2-carboxylic acid], the Ki was in the range of 51 to 100 nM. Same read-out and setting: with `Cc1cc(OCCCc2c3n(c4c(-c5c(C)nn(C)c5C)c(Cl)ccc24)CCCN(c2cccc(C(=O)NS(=O)(=O)C4CC4)c2)C3=O)cc(C)c1Cl` [I-369, 3-(8-chloro-11-(3-(4-chloro-3,5-dimethylphenoxy)propyl)-1-oxo-7-(1,3,5-trimethyl-1H-pyrazol-4-yl)-4,5-dihydro-H-[1,4]diazepino[1,2-a]indol-2(3H)-yl)-N-(cyclopropylsulfonyl)benzamide] the figure was under 50 nM; with `Cc1cc(OCCCc2c(C(=O)N[C@@H]3CCC[C@@H](C(=O)O)C3)[nH]c3c(-c4c(C)nn(C)c4C)c(Cl)ccc23)cc(C)c1Cl` [I-322, (1R,3R)-3-(6-chloro-3-(3-(4-chloro-3,5-dimethylphenoxy)propyl)-7-(1,3,5-trimethyl-1H-pyrazol-4-yl)-1H-indole-2-carboxamido)cyclohexane-1-carboxylic acid], under 50 nM; with `Cc1cc(OCCCc2c3n(c4c(-c5c(C)nn(C)c5C)c(Cl)ccc24)[C@H](C)CN(c2ccc(C(=O)O)cc2)C3=O)cc(C)c1Cl` [I-172, (R)-4-(7-chloro-10-(3-(4-chloro-3,5-dimethylphenoxy)propyl)-4-methyl-1-oxo-6-(1,3,5-trimethyl-1H-pyrazol-4-yl)-3,4-dihydropyrazino[1,2-a]indol-2(1H)-yl)benzoic acid], under 50 nM. On to `Cc1cc(OCCCc2c(C(=O)N[C@H]3CC[C@@H](C(=O)O)CC3)[nH]c3c(-c4c(C)nn(C)c4C)c(Cl)ccc23)cc(C)c1Cl` [I-332, (1s,4s)-4-(6-chloro-3-(3-(4-chloro-3,5-dimethylphenoxy)propyl)-7-(1,3,5-trimethyl-1H-pyrazol-4-yl)-1H-indole-2-carboxamido)cyclohexane-1-carboxylic acid], for which the inhibitory constant (Ki) was under 50 nM. `Cc1cc(OCCCc2c(C(=O)NCc3cccc(C(=O)O)c3)n(C)c3c(-c4c(C)nn(C)c4C)cccc23)cc(C)c1Cl` [I-33, 3-((3-(3-(4-chloro-3,5-dimethylphenoxy)propyl)-1-methyl-7-(1,3,5-trimethyl-1H-pyrazol-4-yl)-1H-indole-2-carboxamido)methyl)benzoic acid]: the Ki lay within 51 to 100 nM.

With `Cc1cc(OCCCc2c3n(c4c(-c5c(C)nn(C)c5C)c(Cl)ccc24)CCCN(c2cc(C(=O)O)cc(N4CCN(C)CC4)c2)C3=O)cc(C)c1Cl` [I-219, 3-(8-chloro-11-(3-(4-chloro-3,5-dimethylphenoxy)propyl)-1-oxo-7-(1,3,5-trimethyl-1H-pyrazol-4-yl)-4,5-dihydro-1H-[1,4]diazepino[1,2-a]indol-2(3H)-yl)-5-(4-methylpiperazin-1-yl)benzoic acid], the Ki was under 50 nM.

As for `Cc1cc(OCCCc2c(C(=O)NCCC(=O)NS(=O)(=O)c3cccc(C#N)c3)[nH]c3ccccc23)cc(C)c1Cl` [I-19, 3-(3-(4-chloro-3,5-dimethylphenoxy)propyl)-N-(3-((3-cyanophenyl)sulfonamido)-3-oxopropyl)-1H-indole-2-carboxamide], the inhibitory constant (Ki) was 101 to 299 nM. Still for that read-out and setting: with `Cc1cc(OCCCc2c(C(=O)N[C@H]3CC[C@@H](C(=O)O)C3)[nH]c3c(-c4c(C)nn(C)c4C)c(Cl)ccc23)cc(C)c1Cl` [I-330, (1R,3S)-3-(6-chloro-3-(3-(4-chloro-3,5-dimethylphenoxy)propyl)-7-(1,3,5-trimethyl-1H-pyrazol-4-yl)-1H-indole-2-carboxamido)cyclopentane-1-carboxylic acid] the figure was under 50 nM; with `Cc1cc(OCCCc2c3n(c4c(-c5c(C)nn(C)c5C)c(Cl)ccc24)C[C@@H](C)N(Cc2ccc(C(=O)O)o2)C3=O)cc(C)c1Cl` [I-123, (R)-5-((7-chloro-10-(3-(4-chloro-3,5-dimethylphenoxy)propyl)-3-methyl-1-oxo-6-(1,3,5-trimethyl-1H-pyrazol-4-yl)-3,4-dihydropyrazino[1,2-a]indol-2(1H)-yl)methyl)furan-2-carboxylic acid], under 50 nM. Same read-out and setting: to `Cc1cc(OCCCc2c3n(c4c(-c5c(C)nn(C)c5C)c(Cl)ccc24)[C@@H](C)CN(c2cc(C(=O)O)cc4c2ccn4C)C3=O)cc(C)c1Cl` [I-167, (S)-4-(7-chloro-10-(3-(4-chloro-3,5-dimethylphenoxy)propyl)-4-methyl-1-oxo-6-(1,3,5-trimethyl-1H-pyrazol-4-yl)-3,4-dihydropyrazino[1,2-a]indol-2(1H)-yl)-1-methyl-1H-indole-6-carboxylic acid] belongs under 50 nM; to `Cc1cc(OCCCc2c(C(=O)N[C@H]3CCC[C@@H](C(=O)O)C3)[nH]c3c(-c4c(C)nn(C)c4C)c(Cl)ccc23)cc(C)c1Cl` [I-331, (1R,3S)-3-(6-chloro-3-(3-(4-chloro-3,5-dimethylphenoxy)propyl)-7-(1,3,5-trimethyl-1H-pyrazol-4-yl)-1H-indole-2-carboxamido)cyclohexane-1-carboxylic acid], under 50 nM. Take `Cc1cc(OCCCc2c3n(c4c(-c5c(C)nn(C)c5C)c(Cl)ccc24)CCCN(Cc2cc(C(=O)O)cc(Cl)n2)C3=O)cc(C)c1Cl` [I-349, 2-chloro-6-((8-chloro-1-(3-(4-chloro-3,5-dimethylphenoxy)propyl)-1-oxo-7-(1,3,5-trimethyl-1H-pyrazol-4-yl)-4,5-dihydro-1H-[1,4]diazepino[1,2-a]indol-2(3H)-yl)methyl)isonicotinic acid]: the inhibitory constant (Ki) is under 50 nM. Same read-out and setting: with `Cc1cc(OCCCc2c3n(c4c(-c5c(C)nn(C)c5C)c(Cl)ccc24)CCC(C)N(Cc2ccc(C(=O)O)o2)C3=O)cc(C)c1Cl` (stereo not drawn) [I-126, 5-((8-chloro-1-(3-(4-chloro-3,5-dimethylphenoxy)propyl)-3-methyl-1-oxo-7-(1,3,5-trimethyl-1H-pyrazol-4-yl)-4,5-dihydro-1H-[1,4]diazepino[1,2-a]indol-2(3H)-yl)methyl)furan-2-carboxylic acid] the figure was under 50 nM; with `Cc1cc(OCCCc2c3n(c4c(-c5c(C)nn(C)c5C)cccc24)CCCN(Cc2ccc(C(=O)O)cc2)C3=O)cc(C)c1Cl` [I-83, 4-((11-(3-(4-chloro-3,5-dimethylphenoxy)propyl)-1-oxo-7-(1,3,5-trimethyl-1H-pyrazol-4-yl)-4,5-dihydro-1H-[1,4]diazepino[1,2-a]indol-2(3H)-yl)methyl)benzoic acid], under 50 nM; with `Cc1cc(OCCCc2c(C(=O)NCc3cccc(C(=O)O)c3)[nH]c3c(-c4c(C)n[nH]c4C)cccc23)cc(C)c1Cl` [I-25a, 3-((3-(3-(4-chloro-3,5-dimethylphenoxy)propyl)-7-(3,5-dimethyl-1H-pyrazol-4-yl)-1H-indole-2-carboxamido)methyl)benzoic acid], under 50 nM. Turning to `Cc1cc(OCCCc2c3n(c4c(-c5c(C)nn(C)c5C)c(Cl)ccc24)CCCN(c2cc(C(=O)O)c4c(Br)cn(C)c4c2)C3=O)cc(C)c1Cl` [I-258, 3-bromo-6-(8-chloro-11-(3-(4-chloro-3,5-dimethylphenoxy)propyl)-1-oxo-7-(1,3,5-trimethyl-1H-pyrazol-4-yl)-4,5-dihydro-1H-[1,4]diazepino[1,2-a]indol-2(3H)-yl)-1-methyl-1H-indole-4-carboxylic acid], the Ki is under 50 nM.

As to `Cc1cc(OCCCc2c(C(=O)Nc3ccc(C(=O)O)nc3)[nH]c3c(-c4c(C)nn(C)c4C)c(Cl)ccc23)cc(C)c1Cl` [I-185, 5-(6-chloro-3-(3-(4-chloro-3,5-dimethylphenoxy)propyl)-7-(1,3,5-trimethyl-1H-pyrazol-4-yl)-1H-indole-2-carboxamido)picolinic acid], the Ki was under 50 nM.

Regarding `Cc1cc(OCCCc2c(C(=O)NCC(=O)NS(=O)(=O)c3ccc(Oc4ccccc4)cc3)[nH]c3ccccc23)cc(C)c1Cl` [I-8, 3-(3-(4-chloro-3,5-dimethylphenoxy)propyl)-N-(2-oxo-2-((4-phenoxyphenyl)sulfonamido)ethyl)-1H-indole-2-carboxamide], the inhibition constant Ki lay within 101 to 299 nM.

The same assay, now with this note: Table 2; Ki bins given in μM; FITC-Bak or FITC-Bim peptide competition; Ki converted from IC50; read-out: Ki for Inhibition of Mcl-1.
As to `Cc1cc(OCCCc2c(C(=O)NCCc3ccccc3)[nH]c3ccccc23)cc(C)c1Cl` [I-42, 3-(3-(4-chloro-3,5-dimethylphenoxy)propyl)-N-phenethyl-1H-indole-2-carboxamide], the Ki was 10000 to 50000 nM.
